# In patent publication US11634466B2, “Musclin peptides and methods of use thereof” (UNIVERSITY OF IOWA RESEARCH FOUNDATION, priority 2016, dated 2023):
# Key:
# [1] = test system: WT and Ostn-KO mice; assay: VO2 max / oxygen consumption on metabolic treadmill (indirect calorimetry) after musclin infusion; assay type: in vivo; conditions: for oxygen consumption, VO2, over time upon initiation of treadmill exercise: 3 weeks of musclin by osmotic pump
# From the text: Natriuretic peptide/cGMP signaling is increasingly recognized as a key regulator of metabolic homeostasis, including effects on skeletal muscle mitochondrial biogenesis and oxidative phosphorylation potential. Maximal aerobic capacity (VO2 max) is commonly used to estimate overall aerobic fitness based on cardiopulmonary function and oxidative phosphorylation potential. To determine whether musclin production impacts aerobic capacity as a potential mechanism underlying differences in exercise tolerance, exercise-trained Ostn-KO and WT mice were monitored on a metabolic treadmill equipped for indirect calorimetry (Columbus instruments, Columbus Ohio). After 5 days of training, mice were placed on the stationary treadmill for 30 minutes and then were exposed to the protocol of escalating exercise workload to determine their VO2 max. […] To assess this, electron micrographs of longitudinal sections through tibialis anterior of exercised mice were examined and appear to show smaller mitochondrial size in the Ostn-KO compared to WT mice (FIG. 6B). […] Furthermore, disruption of normal musclin signaling appears to impact fiber type composition. Specifically, histologic examination of skeletal muscles from Ostn-KO vs. WT mice indicates a shift towards more pure glycolytic type IIb fibers in the KO (FIGS. 10A-10B). Differences between sedentary WT and Ostn-KO mice were less marked (FIGS. 11A-11G), which were consistent with the findings that exercise augments musclin signaling in the WT mice. […] The pattern of distribution of fiber types from muscles of sedentary WT and Ostn-KO was similar to that of their exercise-trained counterparts, consistent with a slower adaptation of fiber type to exercise, except that there was a slightly more prominent component of type IIA fibers in exercised mice (FIG. 12, n=4 each for tibialis anterior and n=3 each for biceps femoris, *p<0.05).
# Whole body composition was obtained by time-domain nuclear magnetic resonance under isoflurane anesthesia (Bruker Minispec; Billerica, Mass.). […]
# A multi-lane treadmill (Columbus Instruments, Columbus, Ohio) was used to simultaneously exercise model mice with their controls. […] For indirect calorimetry, oxygen consumption (VO2) and CO2 generation were measured using a two-lane modular treadmill connected to the Oxymax indirect calorimetry system (Columbus Instruments, Inc.). […]
# [2] = biological target: T1, NPRB (Homo sapiens, UniProt P20594); conditions: background statement; without activating the linked guanylyl cyclase; cited from earlier work
# T1 sequence (P20594 23-1047): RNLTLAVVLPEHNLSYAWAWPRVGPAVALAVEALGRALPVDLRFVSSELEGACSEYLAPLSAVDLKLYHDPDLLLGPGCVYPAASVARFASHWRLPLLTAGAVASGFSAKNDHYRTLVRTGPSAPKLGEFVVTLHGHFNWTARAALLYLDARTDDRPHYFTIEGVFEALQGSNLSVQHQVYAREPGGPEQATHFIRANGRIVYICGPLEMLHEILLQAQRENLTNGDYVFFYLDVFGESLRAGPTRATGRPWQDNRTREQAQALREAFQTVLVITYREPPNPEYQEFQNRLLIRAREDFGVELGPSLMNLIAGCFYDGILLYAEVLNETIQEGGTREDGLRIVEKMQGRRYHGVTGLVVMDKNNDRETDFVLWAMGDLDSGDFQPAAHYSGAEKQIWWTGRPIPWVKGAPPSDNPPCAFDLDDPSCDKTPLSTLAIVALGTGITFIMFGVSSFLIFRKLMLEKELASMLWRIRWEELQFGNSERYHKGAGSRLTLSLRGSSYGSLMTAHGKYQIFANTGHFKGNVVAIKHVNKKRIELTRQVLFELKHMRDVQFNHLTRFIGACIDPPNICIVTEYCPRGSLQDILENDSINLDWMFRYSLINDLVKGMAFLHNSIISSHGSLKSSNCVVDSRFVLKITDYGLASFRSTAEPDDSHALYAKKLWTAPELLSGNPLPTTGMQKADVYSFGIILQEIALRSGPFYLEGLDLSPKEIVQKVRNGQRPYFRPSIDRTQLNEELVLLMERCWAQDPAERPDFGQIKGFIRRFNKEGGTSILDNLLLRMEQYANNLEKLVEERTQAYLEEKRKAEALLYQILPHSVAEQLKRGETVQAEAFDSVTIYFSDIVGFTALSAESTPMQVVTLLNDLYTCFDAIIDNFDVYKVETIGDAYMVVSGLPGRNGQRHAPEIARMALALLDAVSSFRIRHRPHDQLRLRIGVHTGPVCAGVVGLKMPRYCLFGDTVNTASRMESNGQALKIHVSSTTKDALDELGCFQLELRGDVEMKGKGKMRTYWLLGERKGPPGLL
substance,measurement,setting,value
H-SFSGFGSPLDRLSAGSVEHRGKQRKAVDHSKKR-OH [musclin],VO2 max,"[1]; Ostn-KO mice after 3 weeks of musclin infusion via osmotic pumps, n=3",136.6 ± 1.67 mL/min/kg
same,"oxygen consumption, VO2, over time upon initiation of treadmill exercise","[1]; Ostn-KO mice, vs. WT treated with saline",better than WT treated with saline once steady state was achieved
same,VO2 max,"[1]; WT mice after 3 weeks of musclin infusion via osmotic pumps, n=4",133.9 ± 1.28 mL/min/kg
same,"oxygen consumption, VO2, over time upon initiation of treadmill exercise","[1]; WT mice, vs. WT mice treated with saline",slightly better for several time points
same,binding to NPRB,[2],weak binding
